From patent publication US10308643B2, “Heterocyclic compound” (Takeda Pharmaceutical Company Limited, priority 2015, dated 2019)

Key:
Type in all cases: biochemical
HDAC9 enzyme = biological target: T1, HDAC9 enzyme (Homo sapiens, UniProt Q9UKV0); experiment: HDAC9 Enzyme Inhibitory Assay (HDAC-Glo class IIa); details: 1 μM test compound, wells without enzyme = 100% inhibition; for inhibition at 1 µM: read-out: HDAC9 inhibitory rate (%) (1 μM)
T1 construct: transducing full length HDAC9 gene into Sf-9 insect cells; made in house; host or cells: Sf-9 insect cells
T1 sequence (Q9UKV0 whole entry, species assumed): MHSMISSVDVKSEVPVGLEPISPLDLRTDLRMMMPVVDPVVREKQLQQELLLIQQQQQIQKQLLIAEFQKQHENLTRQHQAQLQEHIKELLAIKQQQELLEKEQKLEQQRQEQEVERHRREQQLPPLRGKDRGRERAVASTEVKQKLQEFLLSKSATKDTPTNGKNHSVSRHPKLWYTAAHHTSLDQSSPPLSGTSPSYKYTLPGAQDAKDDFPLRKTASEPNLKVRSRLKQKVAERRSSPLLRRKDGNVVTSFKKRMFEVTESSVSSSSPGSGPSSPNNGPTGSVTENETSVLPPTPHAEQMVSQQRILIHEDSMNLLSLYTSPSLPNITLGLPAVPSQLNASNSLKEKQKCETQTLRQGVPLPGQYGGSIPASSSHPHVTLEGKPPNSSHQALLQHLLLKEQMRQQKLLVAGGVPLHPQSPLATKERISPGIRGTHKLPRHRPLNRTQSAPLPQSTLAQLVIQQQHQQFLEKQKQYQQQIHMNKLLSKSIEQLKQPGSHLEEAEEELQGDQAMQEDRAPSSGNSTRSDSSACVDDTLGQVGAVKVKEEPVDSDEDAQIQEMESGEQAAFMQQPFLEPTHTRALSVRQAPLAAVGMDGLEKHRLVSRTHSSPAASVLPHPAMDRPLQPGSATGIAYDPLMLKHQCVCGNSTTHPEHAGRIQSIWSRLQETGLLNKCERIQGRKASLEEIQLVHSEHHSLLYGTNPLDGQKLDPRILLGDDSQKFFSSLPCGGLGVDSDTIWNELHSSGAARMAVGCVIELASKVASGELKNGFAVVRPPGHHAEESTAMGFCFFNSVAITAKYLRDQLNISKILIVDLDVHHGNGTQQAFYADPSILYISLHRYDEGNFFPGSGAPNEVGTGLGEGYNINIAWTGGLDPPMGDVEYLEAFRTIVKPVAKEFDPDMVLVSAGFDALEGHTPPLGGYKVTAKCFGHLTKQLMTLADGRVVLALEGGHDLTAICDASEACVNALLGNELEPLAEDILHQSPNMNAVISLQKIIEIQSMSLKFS
Summary of the method: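 Full-length human HDAC9 from Sf-9 cells, Ni-NTA purified, preincubated with compound for 60 min at room temperature in Tris-HCl pH 7.5 buffer (MgCl2, KCl, NaCl, glutathione, Tween-20). HDAC-Glo class IIa substrate-developer added; luminescence read after 20 min, with no-enzyme wells defining 100% inhibition.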

HDAC6 enzyme = biological target: T2, HDAC6 enzyme (Homo sapiens, UniProt Q9UBN7); experiment: HDAC1/6 Enzyme Inhibitory Assay (HDAC-Glo I/II Assay kit), HDAC6; details: 1 μM test compound, wells without enzyme = 100% inhibition; for inhibition at 1 µM: read-out: HDAC6 inhibitory rate (%) (1 μM)
T2 construct: transducing full length HDAC1 and HDAC6 genes into Sf-9 insect cells; GST; purchased SignalChem; host or cells: Sf-9 insect cells
T2 sequence (Q9UBN7 1-1215): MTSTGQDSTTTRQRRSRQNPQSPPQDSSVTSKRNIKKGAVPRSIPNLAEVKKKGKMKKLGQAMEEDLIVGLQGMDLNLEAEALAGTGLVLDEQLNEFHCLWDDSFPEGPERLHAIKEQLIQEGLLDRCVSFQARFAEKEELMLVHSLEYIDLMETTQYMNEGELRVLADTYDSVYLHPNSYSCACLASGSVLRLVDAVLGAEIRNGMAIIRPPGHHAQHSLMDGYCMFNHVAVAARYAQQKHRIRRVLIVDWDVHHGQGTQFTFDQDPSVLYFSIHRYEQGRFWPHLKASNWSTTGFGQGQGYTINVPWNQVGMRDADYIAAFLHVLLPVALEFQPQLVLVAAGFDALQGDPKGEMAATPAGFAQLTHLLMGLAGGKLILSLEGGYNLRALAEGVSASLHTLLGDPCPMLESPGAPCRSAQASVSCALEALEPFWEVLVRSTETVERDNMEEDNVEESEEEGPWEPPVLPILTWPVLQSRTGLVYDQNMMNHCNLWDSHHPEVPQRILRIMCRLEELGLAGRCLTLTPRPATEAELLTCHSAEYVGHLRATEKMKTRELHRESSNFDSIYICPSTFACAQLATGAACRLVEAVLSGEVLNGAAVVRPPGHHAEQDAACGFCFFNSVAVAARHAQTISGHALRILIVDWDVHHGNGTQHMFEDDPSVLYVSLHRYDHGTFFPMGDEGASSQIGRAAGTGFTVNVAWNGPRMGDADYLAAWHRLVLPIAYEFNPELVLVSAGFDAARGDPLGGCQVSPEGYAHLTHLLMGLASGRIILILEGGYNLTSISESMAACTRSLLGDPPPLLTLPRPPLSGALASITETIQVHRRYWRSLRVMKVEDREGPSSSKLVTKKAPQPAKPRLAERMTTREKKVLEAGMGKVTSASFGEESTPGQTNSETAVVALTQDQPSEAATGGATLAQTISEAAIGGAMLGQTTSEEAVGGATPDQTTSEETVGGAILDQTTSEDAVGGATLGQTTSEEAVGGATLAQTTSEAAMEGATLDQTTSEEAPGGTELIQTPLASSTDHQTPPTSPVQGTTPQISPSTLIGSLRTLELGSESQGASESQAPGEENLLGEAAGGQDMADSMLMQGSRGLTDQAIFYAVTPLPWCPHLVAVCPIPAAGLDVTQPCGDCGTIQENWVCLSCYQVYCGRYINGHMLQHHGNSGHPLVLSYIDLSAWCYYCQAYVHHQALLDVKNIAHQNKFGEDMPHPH
Summary of the method: (§1)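 Luminescence readout (HDAC-Glo I/II) after 20 min RT reaction of GST-purified full-length HDAC1 or HDAC6 (Sf-9 expressed) with substrate-developer; enzyme and compound preincubated 60 min RT; buffer 24 mM Tris-HCl pH 7.5, 0.6 mM glutathione, 0.01% Tween-20; no-enzyme wells = 100% inhibition.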

HDAC1 enzyme = biological target: T3, HDAC1 enzyme (Homo sapiens, UniProt Q13547); experiment: HDAC1/6 Enzyme Inhibitory Assay (HDAC-Glo I/II Assay kit), HDAC1; details: 1 μM test compound, wells without enzyme = 100% inhibition; for inhibition at 1 µM: read-out: HDAC1 inhibitory rate (%) (1 μM)
T3 construct: transducing full length HDAC1 and HDAC6 genes into Sf-9 insect cells; GST; purchased SignalChem; host or cells: Sf-9 insect cells
T3 sequence (Q13547 whole entry): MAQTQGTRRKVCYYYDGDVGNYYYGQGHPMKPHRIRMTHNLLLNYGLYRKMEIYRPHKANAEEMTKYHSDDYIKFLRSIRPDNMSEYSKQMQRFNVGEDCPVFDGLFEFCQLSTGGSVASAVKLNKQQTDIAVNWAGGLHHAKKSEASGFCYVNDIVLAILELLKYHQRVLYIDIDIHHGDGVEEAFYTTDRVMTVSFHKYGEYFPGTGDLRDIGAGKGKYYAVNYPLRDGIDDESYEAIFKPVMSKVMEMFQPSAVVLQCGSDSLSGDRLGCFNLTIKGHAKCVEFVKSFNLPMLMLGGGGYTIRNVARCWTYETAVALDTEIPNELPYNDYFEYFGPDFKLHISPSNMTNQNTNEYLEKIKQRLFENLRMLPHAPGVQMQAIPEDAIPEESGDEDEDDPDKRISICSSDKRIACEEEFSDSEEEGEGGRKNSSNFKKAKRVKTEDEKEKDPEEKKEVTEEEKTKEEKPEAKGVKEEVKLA
Summary of the method: as §1

SMILES | inhibition at 1 µM (HDAC9 enzyme) | inhibition at 1 µM (HDAC6 enzyme) | inhibition at 1 µM (HDAC1 enzyme) | HDAC9 inhibitory rate (%) (1 μM) (HDAC9 enzyme) | HDAC6 inhibitory rate (%) (1 μM) (HDAC6 enzyme; 1 µM) | HDAC1 inhibitory rate (%) (1 μM) (HDAC1 enzyme; 1 µM)
O=C1c2cc(-c3noc(C(F)(F)F)n3)ccc2CN1[C@H]1C[C@@H]1c1ccccc1 (relative stereo) [Example 66, 2-(trans-2-phenylcyclopropyl)-6-(5-(trifluoromethyl)-1,2,4-oxadiazol-3-yl)isoindolin-1-one] | 54% | 90% | 17% | – | – | –
O=C1c2cc(-c3noc(C(F)(F)F)n3)ccc2CN1[C@@H]1CCNC[C@H]1c1ccc(F)c(Cl)c1 (relative stereo) [Example 54, 2-(trans-3-(3-chloro-4-fluorophenyl)piperidin-4-yl)-6-(5-(trifluoromethyl)-1,2,4-oxadiazol-3-yl)isoindolin-1-one] | 99% | 100% | 93% | – | – | –
O=C1c2cc(-c3noc(C(F)(F)F)n3)ccc2CN1[C@@H]1CNC[C@H]1c1ccccc1 (relative stereo) [Example 3, trans-2-(4-phenylpyrrolidin-3-yl)-6-(5-(trifluoromethyl)-1,2,4-oxadiazol-3-yl)isoindolin-1-one] | 98% | 96% | 87% | – | – | –
O=C1c2cc(-c3noc(C(F)(F)F)n3)ccc2CN1[C@@H]1CCNC[C@H]1c1ccccc1 [Example 15, 2-((3R,4R)-3-phenylpiperidin-4-yl)-6-(5-(trifluoromethyl)-1,2,4-oxadiazol-3-yl)isoindolin-1-one] | 99% | 98% | 97% | – | – | –
O=C1c2cc(-c3noc(C(F)(F)F)n3)ccc2CN1[C@@H]1COCC[C@H]1O [Example 179, 1,5-anhydro-2,4-dideoxy-2-(1-oxo-6-(5-(trifluoromethyl)-1,2,4-oxadiazol-3-yl)-1,3-dihydro-2H-isoindol-2-yl)-D-threo-pentitol] | 84% | 90% | 11% | – | – | –
O=C(N[C@@H]1CCCC[C@H]1N1Cc2ccc(-c3noc(C(F)(F)F)n3)cc2C1=O)c1ccccc1 (relative stereo) [Example 9, trans-N-(2-(1-oxo-6-(5-(trifluoromethyl)-1,2,4-oxadiazol-3-yl)-1,3-dihydro-2H-isoindol-2-yl)cyclohexyl)benzamide] | 89% | 97% | 54% | – | – | –
O=C1c2cc(-c3noc(C(F)(F)F)n3)ccc2CN1[C@@H]1CCNC[C@H]1c1ccc(F)c(F)c1 (relative stereo) [Example 46, 2-(trans-3-(3,4-difluorophenyl)piperidin-4-yl)-6-(5-(trifluoromethyl)-1,2,4-oxadiazol-3-yl)isoindolin-1-one] | 99% | 99% | 94% | – | – | –
CC1(C(=O)N[C@@H]2COCC[C@H]2N2Cc3ccc(-c4noc(C(F)(F)F)n4)cc3C2=O)COC1 [Example 83, 3-methyl-N-((3S,4R)-4-(1-oxo-6-(5-(trifluoromethyl)-1,2,4-oxadiazol-3-yl)-1,3-dihydro-2H-isoindol-2-yl)tetrahydro-2H-pyran-3-yl)oxetane-3-carboxamide] | 52% | 101% | 5% | – | – | –
O=C1CCCN1c1ccccc1N1Cc2ccc(-c3noc(C(F)(F)F)n3)cc2C1=O [Example 184, 2-(2-(2-oxopyrrolidin-1-yl)phenyl)-6-(5-(trifluoromethyl)-1,2,4-oxadiazol-3-yl)isoindolin-1-one] | 56% | 98% | 7% | – | – | –

Other lines, results leading:

inhibition at 1 µM (HDAC9 enzyme) | inhibition at 1 µM (HDAC6 enzyme) | inhibition at 1 µM (HDAC1 enzyme) | HDAC9 inhibitory rate (%) (1 μM) (HDAC9 enzyme) | HDAC6 inhibitory rate (%) (1 μM) (HDAC6 enzyme; 1 µM) | HDAC1 inhibitory rate (%) (1 μM) (HDAC1 enzyme; 1 µM) | SMILES
52% | 100% | 6% | – | – | – | O=C1c2cc(-c3noc(C(F)(F)F)n3)ccc2CN1[C@@H]1CCCC[C@H]1NC(=O)C1(CO)CC1 [Example 153, 1-(hydroxymethyl)-N-((1R,2R)-2-(1-oxo-6-(5-(trifluoromethyl)-1,2,4-oxadiazol-3-yl)-1,3-dihydro-2H-isoindol-2-yl)cyclohexyl) cyclopropanecarboxamide]
40% | 89% | 3% | – | – | – | O=C(CN1CCCC1=O)N[C@@H]1CCCC[C@H]1N1Cc2ccc(-c3noc(C(F)(F)F)n3)cc2C1=O [Example 121, 2-(2-oxopyrrolidin-1-yl)-N-((1R,2R)-2-(1-oxo-6-(5-(trifluoromethyl)-1,2,4-oxadiazol-3-yl)-1,3-dihydro-2H-isoindol-2-yl)cyclohexyl)acetamide]
44% | 99% | 11% | – | – | – | O=C(CC1(O)CCCC1)N[C@@H]1CCCC[C@H]1N1Cc2ccc(-c3noc(C(F)(F)F)n3)cc2C1=O [Example 91, 2-(1-hydroxycyclopentyl)-N-((1R,2R)-2-(1-oxo-6-(5-(trifluoromethyl)-1,2,4-oxadiazol-3-yl)-1,3-dihydro-2H-isoindol-2-yl)cyclohexyl)acetamide]
27% | 97% | 4% | – | – | – | O=C(Cc1cc(=O)[nH][nH]1)N[C@@H]1CCCC[C@H]1N1Cc2ccc(-c3noc(C(F)(F)F)n3)cc2C1=O [Example 117, 2-(5-oxo-2,5-dihydro-1H-pyrazol-3-yl)-N-((1R,2R)-2-(1-oxo-6-(5-(trifluoromethyl)-1,2,4-oxadiazol-3-yl)-1,3-dihydro-2H-isoindol-2-yl)cyclohexyl)acetamide]
48% | 100% | 6% | – | – | – | CC(C)(C)OC(=O)N1CC(C)(C(=O)N[C@@H]2CCCC[C@H]2N2Cc3ccc(-c4noc(C(F)(F)F)n4)cc3C2=O)C1 [Example 197, tert-butyl 3-methyl-3-(((1R,2R)-2-(1-oxo-6-(5-(trifluoromethyl)-1,2,4-oxadiazol-3-yl)-1,3-dihydro-2H-isoindol-2-yl)cyclohexyl)carbamoyl)azetidine-1-carboxylate]
32% | 96% | 3% | – | – | – | CN1CCCCC1C(=O)N[C@@H]1CCCC[C@H]1N1Cc2ccc(-c3noc(C(F)(F)F)n3)cc2C1=O (stereo partly drawn) [Example 124, 1-methyl-N-((1R,2R)-2-(1-oxo-6-(5-(trifluoromethyl)-1,2,4-oxadiazol-3-yl)-1,3-dihydro-2H-isoindol-2-yl)cyclohexyl)piperidine-2-carboxamide]
– | – | – | 38% | 99% | 9% | O=C(N[C@@H]1CCCC[C@H]1N1Cc2ccc(-c3noc(C(F)(F)F)n3)cc2C1=O)C1CCCCCO1 (stereo partly drawn) [Example 133, N-((1R,2R)-2-(1-oxo-6-(5-(trifluoromethyl)-1,2,4-oxadiazol-3-yl)-1,3-dihydro-2H-isoindol-2-yl)cyclohexyl)oxepane-2-carboxamide]
22% | 101% | 4% | – | – | – | CN1CC(C)(C(=O)N[C@@H]2CCCC[C@H]2N2Cc3ccc(-c4noc(C(F)(F)F)n4)cc3C2=O)C1 [Example 196, 1,3-dimethyl-N-((1R,2R)-2-(1-oxo-6-(5-(trifluoromethyl)-1,2,4-oxadiazol-3-yl)-1,3-dihydro-2H-isoindol-2-yl)cyclohexyl)azetidine-3-carboxamide]
